Paper PMC10783034, “Pharmacokinetic and pharmacodynamic evaluation of the atypical tetracyclines chelocardin and amidochelocardin in murine infection models” (Microbiology Spectrum, 2023)
“And” between values parts separate entries of the source, which are not always exact repeats. Equal values may be shown once.

Experiment: Pharmacokinetic studies in uninfected CD-1 mice (plasma and urine levels)
Format: in vivo
Conditions: for epimerization in plasma and urine in vivo / urine concentrations at time points > 24 hours / plasma levels at 30 mg/kg IV compared with 15 mg/kg IV / urine levels at 30 mg/kg IV compared with 15 mg/kg IV: mice; for F (bioavailability) / AUC0-t / C0 / Cl/F_obs / MRT / Vz/F_obs / t1/2 (plasma half-life) / Cmax / Tmax: CD-1 mice
Protocol: CHD and CDCHD were administered in single PK studies at the doses of 15 mg/kg and 30 mg/kg IV, at 15 mg/kg SC, and 15 mg/kg PO. Up to 25 µL of blood was collected from the lateral tail vein (n = 3 per time point) and time points t = 0.5, 1, 2, 4, and 8 hours. For 15 mg/kg IV- and PO-administered compounds, blood was also collected at time points t = 24 and 48 hours. For IV- and SC-administered compounds, blood was also collected at t = 0.25 hours. At t = 24 hours (15 mg/kg SC, 30 mg/kg IV) or 72 hours (15 mg/kg IV and PO), animals were euthanized to collect blood. At every blood collection, time point spontaneous urine was collected as well. Whole blood was collected into Eppendorf tubes coated with 0.5 M EDTA and immediately spun down at 15,870× g for 10 min at 4°C. Then, plasma was transferred into a new Eppendorf tube and stored at −80°C until analysis.
First, a calibration curve was prepared by spiking different concentrations of CHD and CDCHD into mouse plasma or mouse urine (matrix for mouse PK or PD samples) from CD-1 mice. Caffeine was used as an internal standard. In addition, quality control samples (QCs) were prepared for CHD and CDCHD in plasma and urine. The following extraction procedures were used: 7.5 µL of a plasma or urine sample (calibration samples, QCs, PK or PD samples) was extracted with 37.5 µL of a mixture of methanol/acetonitrile (2:1) containing 12.5 ng/mL of glipizide as an internal standard for 5 min at 2,000 rpm on an Eppendorf MixMate® vortex mixer. Then samples were spun down at 15,870× g for 10 min. Supernatants were transferred to standard HPLC glass vials.
Samples were analyzed using an Agilent 1290 HPLC system coupled to an AB Sciex QTrap 6500 mass spectrometer. LC conditions were as follows: column: Agilent Zorbax Eclipse Plus C18, 50 × 2.1 mm, 1.8 µm; temperature: 30°C; injection volume: 5 µL per sample; flow rate: 700 µL/min. Samples were run under the following conditions. Solvents for acidic conditions: A: 100% water +0.1% formic acid; solvent B: 100% acetonitrile +0.1% formic acid. The gradient for CDCHD was as follows: 99% A at 0 min, 99% A until 1 min, 99%–50% A from 1 to 2.4 min, 50%–35% A from 2.4 to 2.7 min, 35–0% A from 2.7 until 4.5 min, 0% A until 6 min, 0-99% from 6 to 6.2 min, 99% A until 8.0 min. The gradient for CHD was as follows: 99%–90% A from 0 to 1 min, 90%–55% A from 1 to 2.3 min, 50%–40% A from 2.3 to 2.5 min, 40%–0% A from 2.5 to 4.5 min, 0% A until 6 min, 0%–99% A from 6 to 6.2 min, 99% A until 8.0 min. Mass transitions are depicted in Table S3. Peaks of PK and PD samples were quantified using the calibration curve. The accuracy of the calibration curve was determined using QCs independently prepared on different days. PK parameters were determined using a non-compartmental analysis with PKSolver ([55]).

[1] = plasma, 15 mg/kg IV, for CHD active CHD only

Row | Compound | epimerization in plasma and urine in vivo (15 mg/kg IV) | urine concentrations at time points > 24 hours (15 mg/kg IV) | F (bioavailability) (15 mg/kg PO, 15 mg/kg) | F (bioavailability) (15 mg/kg SC, 15 mg/kg) | AUC0-t (plasma, 15 mg/kg IV) | C0 (plasma, 15 mg/kg IV) | Cl/F_obs (plasma, 15 mg/kg IV) [mL/min/kg] | MRT (plasma, 15 mg/kg IV) [h] | Vz/F_obs (plasma, 15 mg/kg IV) [L/kg] | C0 [1] | t1/2 (plasma half-life) [1] [h] | AUC0-t (plasma, 15 mg/kg PO) | Cl/F_obs (plasma, 15 mg/kg PO) [mL/min/kg] | MRT (plasma, 15 mg/kg PO) [h] | Tmax (plasma, 15 mg/kg PO) [h] | Vz/F_obs (plasma, 15 mg/kg PO) [L/kg] | AUC0-t (plasma, 15 mg/kg SC) | Cl/F_obs (plasma, 15 mg/kg SC) [mL/min/kg] | MRT (plasma, 15 mg/kg SC) [h] | Vz/F_obs (plasma, 15 mg/kg SC) [L/kg] | also measured
1 | CC(=O)C1=C(O)[C@H](N)[C@@H]2Cc3c(c(O)c4c(O)c(C)ccc4c3C)C(=O)[C@]2(O)C1=O [CHD, chelocardin] | epimerization was also observed for CHD in plasma and to a lower extent in urine | already declined | 24% and 24.2% | 90% and 90.2% | 31,550.8 ± 2,722.6 ng/mL*h | more than 4 µg/mL | 7.9 ± 0.6 | 8.5 ± 0.2 | 5.6 ± 0.5 | 4,234.3 ± 1,737.1 ng/mL | 8.2 ± 0.3 | 7,636.3 ± 840.7 ng/mL*h | 31.0 ± 4.3 | 19.1 ± 4.1 | 3.3 ± 1.2 | 55.5 ± 14.5 | 28,457.0 ± 4,506.2 ng/mL*h | 8.1 ± 1.1 | 9.7 ± 1.8 | 4.8 ± 1.5 | Cmax of CHD relative to CDCHD (15 mg/kg PO, higher than CDCHD): more than 15 times; plasma levels of CHD relative to CDCHD (15 mg/kg SC, higher than CDCHD): around 10 fold; Cmax (plasma, 15 mg/kg PO): 460.5 ± 58.6 ng/mL; Cmax (plasma, 15 mg/kg SC): 2,109.3 ± 601.9 ng/mL; Tmax (plasma, 15 mg/kg SC): 4.0 ± 0.0 h; Cmax (plasma, 15 mg/kg SC (text)): around 2.1 µg/mL; plasma levels at 30 mg/kg IV compared with 15 mg/kg IV: in a similar range as for the 15 mg/kg IV dose; urine levels at 30 mg/kg IV compared with 15 mg/kg IV: increased urine levels; AUC of CHD relative to CDCHD (plasma, higher than CDCHD, stated in the 15 mg/kg SC paragraph): 3 times
2 | Cc1ccc2c(C)c3c(c(O)c2c1O)C(=O)C1(O)C(=O)C(C(N)=O)=C(O)C(N)C1C3 (centres unmarked) [CDCHD, 2-carboxamido-2-deacetyl-chelocardin] | This was not the case for CDCHD | found at high concentrations | 6% and 5.9% | 24% and 23.5% | 13,229.0 ± 1,147.2 ng/mL*h | around 1.3 µg/mL | 16.0 ± 1.4 | 33.4 ± 8.0 | 33.4 ± 6.1 | 1,336.4 ± 523.5 ng/mL | 24.3 ± 5.2 | 780.9 ± 187.8 ng·h/mL | 294.3 ± 99.2 | 27.9 ± 7.1 | 7.3 ± 1.6 | 394.5 ± 122.6 | 3,109.3 ± 592.0 ng/mL*h | 34.5 | 57.3 | 119.2 | plasma concentrations of CDCHD relative to the active CHD (15 mg/kg IV, time points > 24 hours, higher than active CHD): 10 fold; Cmax (plasma, 15 mg/kg SC, 15 mg/kg): 171 ng/mL and 171.7 ± 17.7 ng/mL; plasma levels at 30 mg/kg IV compared with 15 mg/kg IV: increased plasma levels (by a factor of more than two); urine levels at 30 mg/kg IV compared with 15 mg/kg IV: in a similar range
